Assay results: patent US11419883B2, “Inhibiting senescent processes in beta cells for the prevention of type 1 diabetes” (The Regents of the University of California, priority 2017, dated 2022)

Columns and labels:
NOD islets [1] = assay: NOD islets treated with BH3 mimetics, senescence marker mRNA; format: cell-based, mouse; conditions: NOD islets treated with BH3 mimetic
From the text: Example 4. BH3 mimetics preferentially eliminate SASP beta cells in NOD mice. To determine the role of SASP cells in the development of T1D, we next explored whether pro-survival checkpoints could be exploited to promote selective deletion of senescent beta cells. […] The Bcl-2 family contains a hydrophobic groove called the BH3 domain and ‘BH3 mimetics’ are pharmacological compounds that mimic the binding of the BH3-only initiator proteins to the pro-survival members. The BH3 mimetics can trigger apoptosis with some specificity in cells that have high levels of Bcl-2 or the related members. A number of small molecule inhibitors that target Bcl-2, Bcl-xL, Bcl-w or Mcl-1 proteins have been developed and some of them have been used to preferentially trigger apoptosis in senescent cells, both in vitro and in vivo. To determine which Bcl-2 pro-survival members were relevant to SASP islet cells, we treated NOD islets with BH3 mimetics that had different specificities. ABT-737 targets Bcl-2 and family members Bcl-xL and Bcl-w, ABT-199 selectively targets Bcl-2, and Maritoclax targets only Mcl-1. […]

[2] = test system: CD45-depleted islet cells; assay: SASP factors in conditioned media from CD45-depleted islet cells of treated NOD mice; format: in vivo; conditions: compared to vehicle control mice
Protocol: The secretome of islet cells from the 14-16 week NOD mice was analyzed. Islets depleted of CD45^+ cells were cultured in serum-free media and the resulting culture supernatant, hereafter referred to as conditioned media (CM) was analyzed using a bead-based multi-analyte luminex assay including a variety of key SASP factors and immune cell-specific non-SASP factors (IL-2, Granzyme B). Consistent with the immunohistochemistry analysis, the secretion of SASP factors (IL-6, Serpine1, G-CSF, Ccl2, Mmp9, Mmp12 and Igfpb3) was dramatically higher in the CD45-depleted islet cell populations from 14-week NOD mice as compared with 8-week mice. To determine the time-course of the stress response and SASP in beta cells, younger cohorts of 10 and 12-week old euglycemic NOD mice were analyzed by immunostaining for Cdknla and IL-6.
(§1) Similarly, THP1 chemotaxis activity was reduced in the CM upon ABT-737 treatment of islets relative to vehicle-treated islets ex vivo.

NOD mice = assay: Diabetes incidence in NOD mice after senolytic treatment; format: in vivo
Protocol: FIG. 2 depicts the incidence of diabetes in a cohort of NOD mice treated with ABT-199 (n=5) or vehicle (n=5).
For studies using ABT-737, 10 week old euglycemic NOD/ShiltJ mice were given oral gavage of 100 mg/kg ABT-737 or vehicle (30% propylene glycol, 5% Tween-80 and 65% D5W) for 3 consecutive days followed by a break for 4 days and then again treated for 3 days (a total of 6 doses), and then untreated for 2 weeks followed by three consecutive days of ABT-737 or vehicle treatment and then allowed to age without further treatment until 28 weeks of age.
To determine whether clearance of SASP beta cells prevented diabetes, 10 week euglycemic NOD mice were administered ABT-737 by oral gavage for two weeks, followed by another dose at 16 weeks and allowed to age. Strikingly, while 60% of vehicle control mice were diabetic at this time, only 40% of ABT-737-treated mice became diabetic. We performed a similar study with ABT-199, administering the drug by oral gavage for 2 weeks from 11-13 weeks of age and allowing the mice to age to 30 weeks. Remarkably, while 100% of the controls became diabetic by 28 weeks, only 10% of the ABT-199-treated mice were diabetic (FIG. 2).

immune compartment = assay: Flow cytometry of immune cell types in spleen, pancreatic lymph nodes and islets of treated mice; format: in vivo, NOD mice; conditions: pancreatic lymph nodes, islets; for proportions or balance of effector T cells, B cells and regulatory T cells: relative to vehicle control mice
Protocol: (§2) Example 5. Targeted depletion of SASP beta cells prevents diabetes in NOD mice The impact of senolytic treatments on immune cells was assessed. In islets from NOD mice treated with ABT-737, there was a 2-fold increase in apoptotic cells, as measured by flow cytometry for Annexin V and propidium iodide, in the endocrine compartment compared to vehicle control mice (FIG. 1). […] Flow cytometry was then used to examine the distributions and proportions of main lymphoid cell types involved in T1D in the spleen, pancreatic lymph nodes, and islets from vehicle control and ABT-737- and ABT-199-treated mice.

human THP-1 cell line = assay: THP1 monocyte chemotaxis (transwell) with conditioned media of treated islets; format: cell-based; conditions: treatment of islets ex vivo, relative to vehicle-treated islets
Protocol: The ability of CM from NOD islet cells and human islets to induce monocyte chemotaxis using the transwell assay was tested using the human THP-1 cell line. NCM was capable of stimulating chemotaxis 3-fold over the SFM control, similarly to the positive control, serum-free media conditioned with recombinant mouse CCL2. In addition, CM from human islets expressing SASP induced THP1 chemotaxis ˜5-fold over the SFM control.
as §1

SASP beta cells = assay: ABT-737 oral gavage in NOD mice, immunostaining of senescence and SASP markers in beta cells; format: in vivo; conditions: oral gavage for 1 week
Protocol: To determine whether ABT-737 targeted SASP beta cells for apoptosis in vivo, NOD mice were administered ABT-737 via oral gavage for 1 week followed by analysis of senescence and SASP markers by immunostaining.

[3] = test system: NOD MEFs and 8-week NOD islet cells; assay: Paracrine senescence activity of conditioned media from islet cells of treated mice; format: cell-based, mouse; conditions: CM from CD45-depleted islet cells of treated mice, on NOD MEFs and 8-week NOD islet cells
Protocol: Example 3. Non-cell autonomous activities of islet SASP. To address whether the SASP of beta cells had non-cell autonomous effects resembling SASP, the ability of secreted factors from CD45-depleted islet cells of 14 wk NOD mice to induce senescence in NOD mouse embryonic fibroblasts (MEFs) and in 8 week NOD islets (when senescence is not observed) was assessed. When early passage NOD MEFs were cultured in the presence of CM from 14 wk CD45-depleted NOD islet cells (NCM) they induced Cdkn1a and Cdkn2a expression and increased SA-βgal activity, similarly to the senescent MEF CM control (SCM). The NCM was also capable of increasing the proportion of SA-βgal^+ cells in the cultured islets from 8 week old NOD mice.
as §1

NOD islets [4] = assay: Apoptosis in islets of treated NOD mice (Annexin V/propidium iodide flow cytometry, TUNEL); format: in vivo
Protocol: FIG. 1 depicts the abundance of apoptotic cells (Annexin V^+) in the CD45-(endocrine enriched) fractions of NOD islets treated with ABT-737 for two weeks, compared to control vehicle-treated mice (n=2 mice per group), error bars are s.d. *p<0.05, two-tailed T-test.
as §2

[5] = test system: normal human donor islets; assay: Bleomycin-induced senescence and SASP in normal human donor islets; format: cell-based
Protocol: Next, normal human donor islets were treated with the chemotherapeutic agent bleomycin to induce double-strand DNA breaks and monitored the development of stress-induced senescence and SASP by qRT-PCR and secretion assays after 5 days, coinciding with the typical onset of SASP.

Molecule | Cdkn1a mRNA from treated islets (NOD islets [1]) | Cdkn2a mRNA from treated islets (NOD islets [1]) | levels of SASP factors in CM from CD45-depleted islet cells [2] | treated mice diabetic (NOD mice; dosed 2 weeks from 11-13 weeks of age, by 28 weeks, 100% of controls diabetic) | proportions of macrophages or dendritic cells (immune compartment) | proportions or balance of effector T cells, B cells and regulatory T cells (immune compartment) | THP1 chemotaxis activity of CM (human THP-1 cell line) | Cdkn2a expression in beta cells (immunostaining) (SASP beta cells) | reduction in Cdkn2a+ beta cells (SASP beta cells; quantification) | SASP marker Mmp2+ beta cells (SASP beta cells; relative to controls) | paracrine senescence activity of CM [3] | increase in apoptotic cells (Annexin V+) in the endocrine compartment (NOD islets [4]; CD45- fraction of NOD islets, treated two weeks, compared to vehicle control mice) | TUNEL staining of apoptotic islet cells (NOD islets [4]; pancreata from treated mice) | apoptosis in the immune compartment (NOD islets [4]; relative to vehicle controls) | treated mice that became diabetic (NOD mice; 10 week NOD mice, oral gavage two weeks plus another dose at 16 weeks, 60% of vehicle controls diabetic) | expression of CDKN1A and CDKN2A (qRT-PCR) ([5]; after 5 days) | SASP factors IL-6, IL-8, IL-1β and TNFα in CM (Luminex) ([5]; compared with control islet CM)
CC1(C)CCC(CN2CCN(c3ccc(C(=O)NS(=O)(=O)c4ccc(NCC5CCOCC5)c([N+](=O)[O-])c4)c(Oc4cnc5[nH]ccc5c4)c3)CC2)=C(c2ccc(Cl)cc2)C1 [ABT-199] | significant reduction | significant reduction | lower levels of most of the SASP factors | 10% | no changes | no significant changes | – | – | – | – | – | – | – | – | – | – | –
CN(C)CC[C@H](CSc1ccccc1)Nc1ccc(S(=O)(=O)NC(=O)c2ccc(N3CCN(Cc4ccccc4-c4ccc(Cl)cc4)CC3)cc2)cc1[N+](=O)[O-] [ABT-737] | significant reduction | significant reduction | lower levels of most of the SASP factors | – | no changes | no significant changes | reduced | marked reduction | over 40% | only rarely detected | diminished | 2 fold | showed TUNEL^+ cells within the islet | no significant differences | 40% | – | –
O=C(c1ccccc1O)c1[nH]c(Cl)c(Cl)c1-n1c(C(=O)c2ccccc2O)cc(Cl)c1Cl [Maritoclax] | did not have effects | did not have effects | – | – | – | – | – | – | – | – | – | – | – | – | – | – | –
bleomycin | – | – | – | – | – | – | – | – | – | – | – | – | – | – | – | induced expression | increased levels
